Measured values taken from patent US11702663B2, “Bacteria-based protein delivery” (Universitaet Basel, priority 2015, dated 2023).

Assays:
Akt = assay type: cell-based, human
HeLa cells [1] = assay type: cell-based, human
4T1 cells = assay type: cell-based, murine
HeLa cells [2] = assay type: cell-based, human; remark: listed apart in the source
D2A1 cells = assay type: cell-based
B16F10 cells = assay type: cell-based, murine
HeLa cells [3] = assay type: cell-based, human; remark: listed apart in the source
[4] = system: B16F10 murine melanoma cells; assay type: cell-based
[5] = system: 4T1 murine breast cancer cells; assay type: cell-based
HeLa cells [6] = assay: Western blotting of T3SS translocated proteins from infected cells (digitonin lysis); assay type: cell-based, human; conditions: HeLa cells coinfected with strain delivering 2×TEV cleavage site substrate, 2 h, MOI of 100
Excerpt: Western blotting of T3SS translocated proteins from infected cells. HeLa cells in 6-well plates were infected at an MOI of 100 as described above. In case of coinfection with the TEV protease translocating Y. enterocolitica strain, the OD600 of the strains was set and the two bacterial suspensions were mixed in a tube at a ratio of 1:1 (if not otherwise indicated) before addition to the cells. At the end of the infection, the cells were washed twice with ice-cold PBS and collected by scraping in a small volume of ice-cold PBS. After centrifugation (16 000 rcf, 5 min, 4° C.) the pellet was dissolved in 0.002% digitonin supplemented with a protease inhibitor cocktail (Roche complete, Roche). The dissolved pellets were incubated for 5 minutes on ice and then centrifuged (16 000 rcf, 25 min, 4° C.). Supernatants were collected and analyzed for total protein content by […] (Pierce) before SDS PAGE and Western blotting using an anti-Myc (Santa Cruz, 9E11) or anti-Ink4C (Cell Signaling) antibody.

p38 = assay type: cell-based, human
HeLa cells [7] = assay type: cell-based, human; remark: listed apart in the source
zebrafish embryos = conditions: in vivo

YopE1-138-SopB: YopE1-138 fusion to Salmonella type III effector SopB
phosphorylation of Akt at T308 and S473 (Akt): induced a strong phosphorylation of Akt at T308 and S473

YopE1-138-SopE-Myc: YopE1-138 fusion to SopE with MycHis tag
F-actin rearrangements (HeLa cells [1]): triggered massive F-actin rearrangements

murine tBID: murine tBID codon optimized for Y. enterocolitica fused to YopE1-138
cell death (4T1 cells): triggered cell death | cell death (HeLa cells [2]): triggered cell death | cell death (D2A1 cells): triggered cell death | cell death (B16F10 cells): triggered cell death

BH3 domain of murine BAX: YopE1-138 fusion to BH3 domain of murine BAX, codon optimized for Y. enterocolitica
cell death (4T1 cells): induce massive cell death | cell death (HeLa cells [2]): induce massive cell death | cell death (D2A1 cells): induce massive cell death | cell death (B16F10 cells): induce massive cell death

BepAE305-end: YopE1-138 fusion to BepA E305-end containing the C-terminal Bid domain
cAMP production (HeLa cells [3]): triggered cAMP production in expected amounts

BepG: YopE1-138 fusion to the Bid domain of the B. henselae effector BepG
cAMP production (HeLa cells [3]): failed to induce cAMP

YopE1-138-(tBID-BH3)-(BAX-BH3): murine BH3 domain of tBID fused to murine BH3 domain of BAX, fused to YopE1-138
cell death (nuclear count) [4]: more active than YopE1-138-(tBID-BH3) at lower MOI | cell death (nuclear count) [5]: more active than YopE1-138-(tBID-BH3) at lower MOI

YopE1-138-(tBID BH3)2: murine BH3 domain of tBID fused to itself, fused to YopE1-138
IC50 (MOI), pBad-MycHisA based delivery compared with pYV encoded [4]: slightly decreased IC50 value | capacity of inducing apoptosis, IC50 (MOI needed to kill 50% of cells) [4]: decreased upon delivery of tandem repeats of tBID BH3 domain as compared to a single tBID BH3 domain | cell death (nuclear count) [4]: more active than YopE1-138-(tBID-BH3) at lower MOI | efficiency of cell killing, IC50 (MOI needed to kill 50% of cells) [4]: decreased upon delivery of tandem repeats of tBID BH3 domain as compared to a single tBID BH3 domain | IC50 (MOI), pBad-MycHisA based delivery compared with pYV encoded [5]: slightly decreased IC50 value | capacity of inducing apoptosis, IC50 (MOI needed to kill 50% of cells) [5]: decreased upon delivery of tandem repeats of tBID BH3 domain as compared to a single tBID BH3 domain | cell death (nuclear count) [5]: more active than YopE1-138-(tBID-BH3) at lower MOI | efficiency of cell killing, IC50 (MOI needed to kill 50% of cells) [5]: decreased upon delivery of tandem repeats of tBID BH3 domain as compared to a single tBID BH3 domain

YopE1-138-BID: YopE1-138 fusion to human BH3 interacting-domain death agonist (BID)
apoptosis induction / cell death (HeLa cells [2]): failed to induce apoptosis

BepA: YopE1-138 fusion to full length type IV effector BepA from B. henselae
cAMP production (HeLa cells [3]): triggered cAMP production in expected amounts

TEV protease: TEV protease (S219V variant) fused to YopE1-138
activity of T3SS delivered TEV protease (HeLa cells [6]): functional

BH3 domain of murine BID: YopE1-138 fusion to BH3 domain of murine tBID, codon optimized for Y. enterocolitica
cell death (4T1 cells): induce massive cell death | cell death (HeLa cells [2]): induce massive cell death | cell death (D2A1 cells): induce massive cell death | cell death (B16F10 cells): induce massive cell death

YopE1-138-OspF: YopE1-138 fusion to S. flexneri type III effector OspF, a phosphothreonine lyase
TNFα-induced p38 phosphorylation (p38): TNFα-induced phosphorylation was abolished

YopE1-138-SopE: YopE1-138 fusion to SopE from Salmonella enterica, a guanine nucleotide exchange factor
changes in the actin network (HeLa cells [1]): induced dramatic changes in the actin network | first changes in the actin cytoskeleton observed (HeLa cells [1]): 2 min p.i. | phosphorylation of Akt at T308 and S473 (Akt): had no effect on Akt

YopE1-138-tBID: YopE1-138 fusion to human truncated BID (tBID)
apoptosis induction / cell death (HeLa cells [2]): triggered cell death in larger extend than the well-characterized apoptosis inducer staurosporin | apoptotic response (confocal images, mitochondrial integrity) (HeLa cells [2]): induces a rapid apoptotic response | production of CASP3 p17 subunit (HeLa cells [2]): lead to the production of CASP3 p17 subunit, even in larger amounts as with staurosporin

YopE1-138-(tBID-BH3): BH3 domain of murine tBID fused to YopE1-138, control for repeated domain constructs
cell death (nuclear count) [4]: triggered cell death | cell death (nuclear count) [5]: triggered cell death

YopE1-138-SptP: YopE1-138 fusion to SptP, a GTPase activating protein (GAP) for Cdc42
effect of co-infection on F-actin rearrangements triggered by YopE1-138-SopE-Myc (HeLa cells [1]): abolished this effect in a dose dependent manner

Murine tBID fused to full length SteA: full length SteA fused to murine tBID, delivered by S. enterica
apoptosis induction (CASP3 p17 subunit) (HeLa cells [7]): lead to apoptosis induction

YopE1-138-z-BIM: YopE1-138 fusion to zebrafish apoptosis inducer z-BIM
apoptosis induction / cell death (HeLa cells [2]): showed clear signs of cell death | apoptosis in nearby cells, automated image analysis on maximum intensity z projections (zebrafish embryos): induce apoptosis in nearby cells by far more than control bacteria do | cleaved CASP3 (p17) staining in regions surrounding the bacteria (zebrafish embryos): strong increase in presence of cleaved CASP3

B1: SteA1-20 fused murine tBID: 20 N-terminal amino acids of SteA fused to murine tBID, delivered by S. enterica (protein)
chain: MPYTSVSTYARALSGNKLPHGTGSQASRSFNQGRIEPDSESQEEIIHNIARHLAQIGDEMDHNIQPTLVRQLAAQFMNGSLSEEDKRNCLAKALDEVKTAFPRDMENDKAMLIMTMLLAKKVASHAPSLLRDVFHTTVNFINQNLFSYVRNLVRNEMD
modifications: SteA1-20 - S. enterica codon optimized murine t-BID
notes: 20 N-terminal amino acids of SteA fused to murine tBID, delivered by S. enterica
apoptosis induction (CASP3 p17 subunit) (HeLa cells [7]): failed to induce apoptosis
